Laboratory results taken from the NIST ThermoML archive (doi:10.1021/je050050p).

Assay: xn = mol fraction of the nth substance listed
Details: Liquid, Vibrating tube method

CN(C)C=O [dimethylformamide] + O=C=O
Details	mass density [kg/m3]
333 K, 18021 kPa, x2 = 0.4502	942.21
333 K, 19006 kPa, x2 = 0.4502	943.4
333 K, 19008 kPa, x2 = 0.4068	942.75
333 K, 20008 kPa, x2 = 0.4068	943.81
333 K, 20021 kPa, x2 = 0.4502	944.58
333 K, 20981 kPa, x2 = 0.4068	944.88
333 K, 21001 kPa, x2 = 0.4502	945.74
333 K, 22001 kPa, x2 = 0.4068	945.96
333 K, 22027 kPa, x2 = 0.4502	946.9
333 K, 22996 kPa, x2 = 0.4068	947.02
333 K, 23019 kPa, x2 = 0.4502	948.04
333 K, 24013 kPa, x2 = 0.4068	948.07
333 K, 24013 kPa, x2 = 0.4502	949.18
333 K, 25001 kPa, x2 = 0.4068	949.09
333 K, 25015 kPa, x2 = 0.4502	950.28
342.89 K, 10992 kPa, x2 = 0.6235	886.15
342.89 K, 12012 kPa, x2 = 0.6235	889.74
342.89 K, 13020 kPa, x2 = 0.6235	893.05
342.89 K, 14010 kPa, x2 = 0.6235	896.16
342.89 K, 15018 kPa, x2 = 0.6235	899.25
342.89 K, 16005 kPa, x2 = 0.6235	902.14
342.89 K, 17023 kPa, x2 = 0.6235	905.02
342.89 K, 18015 kPa, x2 = 0.6235	907.74
342.89 K, 19032 kPa, x2 = 0.6235	910.42
342.89 K, 20044 kPa, x2 = 0.6235	913.05
342.89 K, 21008 kPa, x2 = 0.6235	915.46
342.89 K, 21997 kPa, x2 = 0.6235	917.87
342.89 K, 23022 kPa, x2 = 0.6235	920.31
342.89 K, 24005 kPa, x2 = 0.6235	922.57
342.89 K, 25050 kPa, x2 = 0.6235	924.92
342.92 K, 9047 kPa, x2 = 0.4268	916.56
342.92 K, 10045 kPa, x2 = 0.4268	917.97
342.92 K, 11042 kPa, x2 = 0.4268	919.28
342.92 K, 12037 kPa, x2 = 0.4268	920.66
342.92 K, 13020 kPa, x2 = 0.4268	921.93
342.92 K, 13997 kPa, x2 = 0.4268	923.27
342.92 K, 14981 kPa, x2 = 0.4268	924.53
342.92 K, 15034 kPa, x2 = 0.9311	711.76
342.92 K, 15061 kPa, x2 = 0.8091	832.64
342.92 K, 15988 kPa, x2 = 0.8091	839.54
342.92 K, 15991 kPa, x2 = 0.4268	925.79
342.92 K, 16002 kPa, x2 = 0.9311	729.81
342.92 K, 17002 kPa, x2 = 0.4268	927.11
342.92 K, 17015 kPa, x2 = 0.9311	745.62
342.92 K, 17027 kPa, x2 = 0.8091	845.55
342.92 K, 18016 kPa, x2 = 0.8091	851.1
342.92 K, 18024 kPa, x2 = 0.9311	759.3
342.92 K, 18025 kPa, x2 = 0.4268	928.36
342.92 K, 19002 kPa, x2 = 0.9311	770.95
342.92 K, 19028 kPa, x2 = 0.8091	856.53
342.92 K, 19044 kPa, x2 = 0.4268	929.6
342.92 K, 19999 kPa, x2 = 0.4268	930.83
342.92 K, 20000 kPa, x2 = 0.9311	781.74
342.92 K, 20057 kPa, x2 = 0.8091	861.77
342.92 K, 20984 kPa, x2 = 0.4268	931.96
342.92 K, 21012 kPa, x2 = 0.8091	866.52
342.92 K, 21034 kPa, x2 = 0.9311	791.87
342.92 K, 21992 kPa, x2 = 0.8091	871.08
342.92 K, 22002 kPa, x2 = 0.4268	933.2
342.92 K, 22002 kPa, x2 = 0.9311	800.53
342.92 K, 22999 kPa, x2 = 0.8091	875.54
342.92 K, 23014 kPa, x2 = 0.9311	809.02
342.92 K, 23042 kPa, x2 = 0.4268	934.44
342.92 K, 23981 kPa, x2 = 0.4268	935.53
342.92 K, 24017 kPa, x2 = 0.9311	816.82
342.92 K, 24029 kPa, x2 = 0.8091	879.9
342.92 K, 25008 kPa, x2 = 0.9311	824.06
342.92 K, 25020 kPa, x2 = 0.8091	883.99
342.92 K, 25047 kPa, x2 = 0.4268	936.75
342.93 K, 7012 kPa, x2 = 0.2876	914.85
342.93 K, 7999 kPa, x2 = 0.2876	915.95
342.93 K, 9007 kPa, x2 = 0.2876	917.04
342.93 K, 10005 kPa, x2 = 0.2876	918.13
342.93 K, 11003 kPa, x2 = 0.2876	919.16
342.93 K, 12011 kPa, x2 = 0.2876	920.23
342.93 K, 13016 kPa, x2 = 0.2876	921.27
342.93 K, 14012 kPa, x2 = 0.2876	922.31
342.93 K, 15013 kPa, x2 = 0.2876	923.35
342.93 K, 16000 kPa, x2 = 0.2876	924.33
342.93 K, 17024 kPa, x2 = 0.2876	925.34
342.93 K, 18001 kPa, x2 = 0.2876	926.31
342.93 K, 19036 kPa, x2 = 0.2876	927.32
342.93 K, 20015 kPa, x2 = 0.2876	928.27
342.93 K, 21009 kPa, x2 = 0.2876	929.23
